Reference: ChEMBL document CHEMBL2311477, “Alpha-heteroatom derivatized analogues of 3-(acetylhydroxyamino)propyl phosphonic acid (FR900098) as antimalarials” (J Med Chem, 2013)

How the values were obtained:
Plasmodium falciparum [1] = assay: Antimalarial activity against chloroquine-sensitive Plasmodium falciparum 3D7 assessed as parasite growth inhibition; type: functional, organism-based
Escherichia coli = assay: Inhibition of Escherichia coli DXR assessed as reduction of NADPH in NADP+ at 100 nM by spectrophotometric analysis
Plasmodium falciparum [2] = assay: Antimalarial activity against Plasmodium falciparum K1 infected in human erythrocytes assessed as parasite growth inhibition; type: functional, organism-based
[3] = Inhibition of Escherichia coli DXR assessed as reduction of NADPH in NADP+ by spectrophotometric analysis
Plasmodium falciparum [4] = assay: Antimalarial activity against Plasmodium falciparum 3D7 assessed as parasite growth inhibition; type: functional, organism-based

Question: With `CC(=O)N(O)Cc1ccccc1P(OCOC(=O)C(C)(C)C)OCOC(=O)C(C)(C)C` as the molecule, how does the IC50 (Plasmodium falciparum [1]) read?
Answer: 50000 nM

Question: Which results are given for `CC(=O)N(O)CCC(NC(=O)c1ccccc1)P(=O)(O)O` (racemic)?
Answer: inhibition (Escherichia coli): 1.42%; IC50 (Plasmodium falciparum [2]): 49000 nM

Question: Which results are given for `CC(=O)N(O)CCC(N=[N+]=[N-])P(=O)(O)O` (racemic)?
Answer: IC50 ([3]; read-out: IC50): 74.6 nM; IC50 (Plasmodium falciparum [2]): 1980 nM

Question: Which IC50 ([3]; read-out: IC50) does the source give for `CC(=O)N(O)CCC(O)P(=O)(O)O` (racemic) here?
Answer: 52.2 nM

Question: And the IC50 (Plasmodium falciparum [2])?
Answer: 1820 nM

Question: What does the source list for `COC(CCN(O)C(C)=O)P(=O)(O)O` (racemic)?
Answer: inhibition (Escherichia coli): 4.14%; IC50 (Plasmodium falciparum [2]): 4000 nM

Question: With `CC(=O)N(O)CCC(Oc1ccccc1)P(=O)(O)O` (racemic) as the molecule, how does the IC50 [3] read?
Answer: Not Active

Question: And the IC50 (Plasmodium falciparum [2])?
Answer: 13000 nM

Question: Which inhibition (Escherichia coli) does the source give for `CC(=O)N(O)CCC(n1ccnn1)P(=O)(O)O` (racemic) here?
Answer: 3.32%

Question: And the IC50 (Plasmodium falciparum [2])?
Answer: 8960 nM

Question: For `CC(=O)N(O)CCC(n1cc(C(C)(C)C)nn1)P(=O)(O)O` (racemic), which IC50 ([3]; read-out: IC50) is on record?
Answer: 207 nM

Question: What about the IC50 (Plasmodium falciparum [2]) of the same molecule?
Answer: 7760 nM

Question: What does the source list for `CC(=O)N(O)CCC(n1cc(-c2ccccc2)nn1)P(=O)(O)O` (racemic)?
Answer: IC50 ([3]; read-out: IC50): 1130 nM; IC50 (Plasmodium falciparum [2]): 2750 nM

Question: Which results are given for `CC(=O)N(O)CCC(NC(=O)Nc1ccccc1)P(=O)(O)O` (racemic)?
Answer: inhibition (Escherichia coli): 1.3%; IC50 (Plasmodium falciparum [2]): > 64000 nM

Question: Which IC50 (Plasmodium falciparum [4]) does the source give for `O=CN(O)CCCP(=O)(O)O` [FOSMIDOMYCIN] here?
Answer: 1000 nM

Question: With `CC(=O)N(O)CCCP(=O)(O)O` [FR-900098] as the molecule, how does the IC50 ([3]; read-out: IC50) read?
Answer: 15.1 nM
